{"source": "paper PMC11435438", "about": "“Cyclin-Dependent Kinase 8 Represents a Positive Regulator of Cytomegalovirus Replication and a Novel Host Target for Antiviral Strategies” (Pharmaceutics, 2024)", "key": {"[1]": {"test_system": "HCMV AD169", "assay": "Western blot analysis of HCMV protein expression in infected HFFs", "type": "cell-based, human cytomegalovirus", "conditions": "30 nM, HCMV AD169 MOI 0.1, 5 d and 7 d p.i.", "experimental": "(§1) Western blot (Wb) analyses were performed as previously described using total lysates prepared from infected and mock-infected HFFs. For this purpose, HFFs were seeded at 3 × 10^5 cells/6-well and used for infection with HCMV AD169, or other viruses as indicated, then treated with compounds or solvent control. At the given time points of infection, the total lysates were prepared and used for separation on standard SDS-PAGE/Wb procedures. For Wb staining, antibodies specific for CDK8 (A302-501A, Bethyl Laboratories, Montgomery, TX, USA); viral proteins such as mAb-IE1, mAb-UL44, mAb-pp28, and mAb-MCP (kindly provided by S. Jonjic and T. Lenac Rovis, Rijeka, Croatia); as well as mAb-β-actin as a house-keeping protein and loading control (A5441, Sigma Aldrich, St. Louis, MO, USA) were used, followed by incubation and staining with the appropriate HRP-conjugated secondary antibodies."}, "[2]": {"test_system": "HCMV AD169-UL50-HA", "assay": "Virus entry analysis, pre-post-incubation versus post-incubation (Western blot)", "type": "cell-based, human cytomegalovirus", "conditions": "CCT 5 nM and 15 nM, HFFs, MOI 0.01, 7 d p.i.", "experimental": "as §1"}}, "data": [{"compound": "Cn1ncc2cc(-c3cnc(N)c(Cl)c3N3CCC4(CCNC4=O)CC3)ccc21", "note": "[CCT-151921]", "values": [{"measurement": "viral late (L) protein level (pp28), Western blot", "setting": "[1]", "result": "complete inhibition"}, {"measurement": "effect at the stage of virus entry", "setting": "[2]", "result": "does not act at the stage of virus entry"}]}]}
